Experimental data as given in patent US8865684B2, “Morpholin-4-ium 4 methoxyphenyl (morpholino) phosphinodithioate (GYY4137) as a novel vasodilator agent” (National University of Singapore, priority 2009, dated 2014).

What was measured:
anesthetized rat = assay: Blood pressure in the anesthetized rat; assay type: in vivo
[1] = H2S release in vitro, DTNB assay; assay type: physicochemical; details: phosphate buffer
[2] = test system: Langendorff-perfused rat heart; assay: Langendorff-perfused rat heart; details: at 30 minutes
Description: (§1) For experiments using perfused kidney or heart, Sprague-Dawley rats (male; weight, 230 to 270 g) were anesthetized as described above. […] In kidneys, dose-response curves (volumes <10 μL) were obtained for bolus-injected noradrenaline, angiotensin II, or U46619.

[3] = test system: isolated perfused rat kidney; assay: Isolated perfused rat kidney, perfusion pressure
Description: as §1

[4] = test system: phenylephrine-precontracted rat aorta; assay: tissue or blood
[5] = GYY4137 133 μmol/kg IV or IP; NaHS 20 μmol/kg IV; up to 180 minutes
Description: Blood (0.5 mL) was withdrawn at timed intervals, anticoagulated with heparin (50 U/mL), and centrifuged (2000 g, 20 minutes). […] The zinc acetate assay measures free H2S plus related species including HS^− (hydrosulfide anion) and S2^− (sulfide). Accordingly, results for plasma H2S reported herein indicate the sum total of these species. All experiments on intact animals were undertaken with the approval of the local National University of Singapore Institutional Animal Care and Use Committee.

[6] = test system: rat aortic vascular smooth muscle cells (A10); assay: cAMP and cGMP in cultured vascular smooth muscle cells (ELISA); assay type: cell-based; details: 100 μmol/L, 45 minutes, isobutyl methylxanthine 300 μmol/L; control 11.3±1.4; n=6
Description: Normal rat aortic vascular smooth muscle cells (A10) were obtained from the American Type Culture Collection (ATCC, Manassas, Va.).

C1CCC(N=C(NC23CC4CC(CC(C4)C2)C3)N2CCOCC2)CC1.Cl [PNU37883A]
blood pressure after PNU37883A (anesthetized rat; 15 minutes after PNU37883A 26.2 μmol/kg IP, versus 105.6±3.5 before injection, n=5, P=0.053): 117.2±3.7 mm Hg

S [NaHS, sodium hydrosulfide]
H2S release in the DTNB assay [1]: instantaneous
reduction of cardiac contractility (left ventricular diastolic pressure) ([2]; 100 μmol/L): 42.0±7.8%
reduction of heart rate ([2]; NaHS 100 μmol/L): 53.2±6.6%
transient fall in perfusion pressure ([3]; bolus 10 nmol, n=10): 10.2±2.8 mm Hg
fall in perfusion pressure (biphasic response) ([3]; bolus 5 μmol, n=8): 11.6±4.5 mm Hg
rise in perfusion pressure (biphasic response) ([3]; bolus 5 μmol, n=8): 22.7±6.7 mm Hg
time course: response to a standard concentration of phenylephrine after drug [4]: did not reduce
vasorelaxant effect after removal of the endothelium or exposure to L-NAME or ODQ [4]: reduced
vasorelaxant effect in presence of KATP channel blockers (glibenclamide or PNU37883A) [4]: reduced
EC50 ([4]; Rattus norvegicus, phenylephrine-precontracted, read-out: EC50, relaxation of aortic rings): 274 ± 22.2 µM
Emax ([4]; Rattus norvegicus, phenylephrine-precontracted, read-out: Emax, relaxation of aortic rings): 63.4 ± 3.3%
approximate EC70 ([4]; concentration used for time course experiments): ~300 µM
effect on blood pressure (anesthetized rat; NaHS 2.5 to 20 μmol/kg IV, GYY4137 26.6 to 133 μmol/kg IV): immediate, transient (10 to 30 seconds), and dose-related falls
plasma H2S (H2S, HS−, S2−) concentration [5]: did not elevate

C=C[C@@]1(C)CC(=O)[C@]2(O)[C@@]3(C)[C@@H](O)CCC(C)(C)[C@@H]3[C@H](O)[C@H](OC(C)=O)[C@@]2(C)O1 [forskolin]
cAMP concentration [6]: 79.6 ± 1.6 nmol/L
